In publication PMC11352859, “Functionalized Congeners of 2H-Chromene P2Y6 Receptor Antagonists” (Cells, 2024):
Where “and” joins values, the source holds several entries; their conditions need not be identical. Equal entries are not always repeated. Where two headings read alike, the source gives them in different places.

Experiments:
[1] = molecular target: T1, hP2Y6R (Homo sapiens, UniProt Q15077); assay: UDP (100 nM)-induced Ca2+ mobilization in hP2Y6R stably transfected 1321N1 astrocytoma cells; type: cell-based; settings: UDP 100 nM; for IC50: 3–4 independent triplicate determinations
T1 construct: expressed in transfected cells
Procedure: To screen for P2Y6R antagonist activity, PLC-mediated calcium mobilization assays were carried out using the recombinant human P2Y6R stably expressed in 1321N1 astrocytoma cells (hP2Y6R-1321N1) according to the previously published method. Briefly, the hP2Y6R-1321N1 cells were seeded on 96-well black plates and incubated overnight. The antagonists were pretreated along with the FLIPR dye (Calcium 6 assay kit, Molecular Devices, San Jose, CA, USA) containing 5 mM probenecid for 45 min, prior to agonist addition followed by an immediate intracellular Ca^2+ measurement. […] Here, probenecid was used as an organic anion transporter inhibitor to prevent the efflux of the dye into the extracellular environment. During incubation, the membrane permeable dye enters the cytoplasm and cleaves the acetoxymethyl protection to enable Ca^2+ binding. When the P2Y6R was activated by UDP, the increased calcium concentration was directly measured by intracellular changes in the fluorescence intensity with a Fluorescent Imaging Plate Reader (FLIPR^TETRA, Molecular Devices, San Jose, CA, USA).

[2] = molecular target: T2, α2B (Homo sapiens, UniProt P18089); assay: PDSP binding assay, α2B; settings: mean, n = 2
T2 construct: NIMH Psychoactive Drug Screening Program (PDSP)
T2 sequence (P18089 1-450): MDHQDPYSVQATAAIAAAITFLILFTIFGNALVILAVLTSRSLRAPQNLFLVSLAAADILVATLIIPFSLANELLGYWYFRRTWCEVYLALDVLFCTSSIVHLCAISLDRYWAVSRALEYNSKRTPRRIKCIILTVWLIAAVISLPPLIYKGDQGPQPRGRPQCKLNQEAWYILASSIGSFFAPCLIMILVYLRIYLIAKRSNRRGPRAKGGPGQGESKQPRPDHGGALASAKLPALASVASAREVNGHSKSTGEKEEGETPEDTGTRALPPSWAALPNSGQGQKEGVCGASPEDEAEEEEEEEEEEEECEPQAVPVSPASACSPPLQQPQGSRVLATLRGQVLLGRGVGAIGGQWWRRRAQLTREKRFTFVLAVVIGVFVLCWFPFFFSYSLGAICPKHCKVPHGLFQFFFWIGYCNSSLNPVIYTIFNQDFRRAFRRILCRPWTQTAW
Source text: (§1) Table S2. Off-target screening (to replace table later). We thank Dr. Bryan L. Roth (Univ. North Carolina at Chapel Hill) and National Institute of Mental Health's Psychoactive Drug Screening Program (Contract # HHSN-271-2008-00025-C) for screening data. Reference: Besnard et al.
(§2) Procedures: https://pdsp.unc.edu/pdspweb/content/UNC-CH%20Protocol%20Book.pdf […]
(§3) nucleosides were found at the following sites (human unless noted): 5HT1A, 5HT1B, 5HT1D, […]
(§4) β3, BZP rat brain site, D1, D2, D3, D4, D5, GABAA, H1, H2, H3, H4, M1, M2, M5, δ-opioid receptor (DOR), κ-opioid receptor (KOR), μ-opioid receptor (MOR), σ1, σ2, DAT, NET, SERT. Ki values […]
(§5) Compound # PDSP # Receptor LogKi Ki (nM)

[3] = molecular target: T3, 5-HT1D (Homo sapiens, UniProt P28221); assay: PDSP binding assay, 5-HT1D; settings: PDSP, mean, n = 2; read-out: Ki, 5-HT1D
T3 construct: NIMH Psychoactive Drug Screening Program (PDSP)
Source text: as §1, §2, §3, §4, §5

[4] = molecular target: T4, α2A (Homo sapiens, UniProt P08913); assay: PDSP binding assay, α2A; settings: PDSP, mean, n = 2; read-out: Ki, α2A
T4 construct: NIMH Psychoactive Drug Screening Program (PDSP)
T4 sequence (P08913 1-465): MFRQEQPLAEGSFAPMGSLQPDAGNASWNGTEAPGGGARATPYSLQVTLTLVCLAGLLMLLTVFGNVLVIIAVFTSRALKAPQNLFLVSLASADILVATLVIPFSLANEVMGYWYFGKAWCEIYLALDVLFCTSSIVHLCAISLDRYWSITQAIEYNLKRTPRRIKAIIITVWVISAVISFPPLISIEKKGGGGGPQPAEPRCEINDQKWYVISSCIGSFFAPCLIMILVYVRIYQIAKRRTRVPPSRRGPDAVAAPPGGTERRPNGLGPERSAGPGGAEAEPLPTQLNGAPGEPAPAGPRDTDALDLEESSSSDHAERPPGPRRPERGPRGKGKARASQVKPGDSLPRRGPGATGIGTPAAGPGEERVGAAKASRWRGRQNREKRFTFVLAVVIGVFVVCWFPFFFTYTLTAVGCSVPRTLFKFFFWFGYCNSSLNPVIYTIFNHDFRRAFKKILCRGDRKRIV
Source text: as §1, §2, §3, §4, §5

[5] = molecular target: T5, hP2Y14R (Homo sapiens, UniProt Q15391); design: method as in PMID 28527783, PMID 23235874; settings: previous members of the series; ref [29],[43]; cited from earlier work
T5 construct: expressed in transfected cells
T5 sequence (Q15391 1-338): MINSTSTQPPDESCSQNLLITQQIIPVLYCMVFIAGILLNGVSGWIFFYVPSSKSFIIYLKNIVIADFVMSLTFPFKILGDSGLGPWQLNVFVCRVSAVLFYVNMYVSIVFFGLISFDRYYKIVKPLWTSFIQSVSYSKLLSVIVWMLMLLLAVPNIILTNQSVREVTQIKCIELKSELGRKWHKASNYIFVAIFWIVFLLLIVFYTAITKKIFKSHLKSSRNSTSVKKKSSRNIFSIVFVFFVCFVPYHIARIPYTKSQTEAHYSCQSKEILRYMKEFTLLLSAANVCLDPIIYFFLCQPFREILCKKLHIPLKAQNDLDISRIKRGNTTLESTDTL

[6] = test system: other P2YRs; settings: at high µM concentrations; ref [29],[43]; cited from earlier work
[7] = test system: HeLa cells; assay: MTT cell viability assay, HeLa cells; type: cell-based, human; settings: 12 h, MTT
Procedure: (§6) The 1321N1 astrocytoma (hP2Y6R-overexpressing) and HeLa (non-transfected) cell lines were cultured in Dulbecco’s modified Eagle’s medium (DMEM, HyClone, Logan, UT, USA) supplemented with 5% heat-inactivated fetal bovine serum (FBS, HyClone, UT, USA), 100 U/mL penicillin, and 100 µg/mL streptomycin in 5% CO2 at 37 °C. The cell viability was determined using an MTT kit (Sigma, St. Louis, MO, USA) according to the manufacturer’s instructions. Briefly, 1 × 10^4 cells were seeded in triplicate in 96-well plates. The hP2Y6R-astrocytoma and HeLa cells were treated with a P2Y6R agonist and antagonists at a range of concentrations and incubated for 12 h. The cell viability was measured at 490 nm using a SpectraMax-M5 Spectrometer (Molecular Devices, San Jose, CA, USA).

[8] = test system: hP2Y6R-1321N1 human astrocytoma cells; assay: MTT cell viability assay, hP2Y6R-1321N1 astrocytoma cells; type: cell-based; settings: P2Y6R-astrocytoma, 12 h, MTT
Procedure: as §6

[9] = molecular target: T6, D5 (Homo sapiens, UniProt P21918); assay: PDSP binding assay, D5; settings: PDSP, mean, n = 2; read-out: Ki, D5
T6 construct: NIMH Psychoactive Drug Screening Program (PDSP)
Source text: as §1, §2, §3, §4, §5

[10] = read-out: IC50, hP2Y6R (Mean ± SEM)

T1 sequence (Q15077 whole entry): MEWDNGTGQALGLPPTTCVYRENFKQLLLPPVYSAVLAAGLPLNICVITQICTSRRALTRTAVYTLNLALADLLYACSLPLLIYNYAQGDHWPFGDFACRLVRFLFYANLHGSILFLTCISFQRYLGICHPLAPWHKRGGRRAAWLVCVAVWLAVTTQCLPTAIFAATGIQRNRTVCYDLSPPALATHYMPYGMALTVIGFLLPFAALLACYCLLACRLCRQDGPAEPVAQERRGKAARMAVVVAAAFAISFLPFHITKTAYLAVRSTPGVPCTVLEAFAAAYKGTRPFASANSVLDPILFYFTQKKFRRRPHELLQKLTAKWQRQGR
T3 sequence (P28221 whole entry): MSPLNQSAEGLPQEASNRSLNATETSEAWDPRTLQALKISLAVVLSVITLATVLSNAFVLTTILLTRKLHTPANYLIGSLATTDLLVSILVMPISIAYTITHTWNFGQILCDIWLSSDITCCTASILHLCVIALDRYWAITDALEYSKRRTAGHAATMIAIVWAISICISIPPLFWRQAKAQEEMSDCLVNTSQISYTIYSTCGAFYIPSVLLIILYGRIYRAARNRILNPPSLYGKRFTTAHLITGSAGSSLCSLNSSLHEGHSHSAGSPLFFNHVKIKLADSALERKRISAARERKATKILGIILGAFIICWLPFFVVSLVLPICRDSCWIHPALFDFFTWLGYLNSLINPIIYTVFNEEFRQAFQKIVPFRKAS
T6 sequence (P21918 whole entry): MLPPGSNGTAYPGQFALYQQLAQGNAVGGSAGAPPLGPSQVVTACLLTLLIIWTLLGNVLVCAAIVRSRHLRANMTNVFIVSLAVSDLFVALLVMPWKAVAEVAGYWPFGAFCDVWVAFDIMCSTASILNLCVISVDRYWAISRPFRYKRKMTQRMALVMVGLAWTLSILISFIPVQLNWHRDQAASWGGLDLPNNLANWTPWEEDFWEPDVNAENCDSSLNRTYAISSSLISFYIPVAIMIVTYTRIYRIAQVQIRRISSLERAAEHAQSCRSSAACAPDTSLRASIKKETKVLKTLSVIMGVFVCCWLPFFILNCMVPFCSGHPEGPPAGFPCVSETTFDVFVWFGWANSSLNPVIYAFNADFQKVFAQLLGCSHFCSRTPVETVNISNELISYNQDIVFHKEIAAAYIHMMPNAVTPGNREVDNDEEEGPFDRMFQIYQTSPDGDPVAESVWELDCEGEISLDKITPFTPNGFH

Compound `NCCC#Cc1ccc2c(c1)C=C([N+](=O)[O-])C(C(F)(F)F)O2` (centres unmarked) [Compound 21] has an IC50 [1, 10] of 22.6 ± 9.3 µM.
`CC(C)(C)OC(=O)NCCCCCC#Cc1ccc2c(c1)C=C([N+](=O)[O-])C(C(F)(F)F)O2` (centres unmarked) [Compound 26] showed an IC50 [1, 10] of 1.19 ± 0.25 µM, a Ki [2] of 1.7 µM and a Ki [3] of 4.8 µM. The Ki [4] was 0.75 µM.
With `CC(C)(C)n1nc(-c2nc3cc(Cl)ccc3[nH]2)cc1-c1ccco1` [Compound 4, reference compound] the inhibition at 100 µM ([1]; 1321-N1, at 100 µM) was 18.9 ± 8.5% and the IC50 ([1]; IC50, hP2Y6R (Mean ± SEM)) was > 100 µM.
With `CC(C)(C)OC(=O)NCCCCCCC#Cc1ccc2c(c1)C=C([N+](=O)[O-])C(C(F)(F)F)O2` (centres unmarked) [Compound 28] the IC50 [1, 10] was 10.5 ± 6.5 µM.
`NCCCCC#Cc1ccc2c(c1)C=C([N+](=O)[O-])C(C(F)(F)F)O2` (centres unmarked) [Compound 25] gave an IC50 [1, 10] of 5.39 ± 1.49 µM.
In the case of `O=[N+]([O-])C1=Cc2ccccc2OC1C(F)(F)F` (centres unmarked) [Compound 2a, reference compound], the IC50 [1, 10] is given as 2.91 ± 1.21 µM, the “hP2Y14R binding” value [5] is given as “inactive” and the “inhibition at most other P2YRs” value [6] is given as “minor”.
`NCCCCCCCC#Cc1ccc2c(c1)C=C([N+](=O)[O-])C(C(F)(F)F)O2` (centres unmarked) [Compound 32] gave an IC50 [1, 10] of 6.37 ± 1.82 µM.
In the case of `O=[N+]([O-])C1=Cc2cc(C#Cc3ccc(CO)cc3)ccc2OC1C(F)(F)F` (centres unmarked) [Compound 16], the “hP2Y14R binding” value [5] is given as “inactive”.
In the case of `O=[N+]([O-])C1=Cc2cc(C#CCCCCCCCCBr)ccc2OC1C(F)(F)F` (centres unmarked) [Compound 19], the IC50 [1, 10] is reported as 14 ± 4.7 µM.
For `O=[N+]([O-])C1=Cc2cccc(Cl)c2OC1C(F)(F)F` (centres unmarked) [Compound 8], the “hP2Y14R binding” value [5] is given as “inactive”.
For `O=[N+]([O-])C1=Cc2cc(C#Cc3ccc(O)cc3)ccc2OC1C(F)(F)F` (centres unmarked) [Compound 15], the “hP2Y14R binding” value [5] is given as “inactive”.
For `O=[N+]([O-])C1=Cc2cc(F)ccc2OC1C(F)(F)F` (centres unmarked) [MRS4830, 6-fluoro-3-nitro-2-(trifluoromethyl)-2H-chromene], the “% survival” value ([7]; 0.1 µM) was 94%, the “% survival” value ([7]; 0.5 µM) was 91% and the “% survival” value ([7]; 1 µM) was 93%. For the same compound, the “% survival” value ([7]; 5 µM) was 87%, the “% survival” value ([7]; 10 µM) was 83% and the “% survival” value ([8]; 0.1 µM) was 100%. The “% survival” value ([8]; 0.5 µM) was 102%, the “% survival” value ([8]; 1 µM) was 101% and the “% survival” value ([8]; 5 µM) was 96%. The “% survival” value ([8]; 10 µM) was 89%.
For `NCCCCCCCCC#Cc1cccc2c1OC(C(F)(F)F)C([N+](=O)[O-])=C2` (centres unmarked) [Compound 40], the IC50 [1, 10] was 20 to 30 µM and 34.8 µM.
Compound `CC(C)(C)OC(=O)NCCC#Cc1ccc2c(c1)C=C([N+](=O)[O-])C(C(F)(F)F)O2` (centres unmarked) [Compound 20] has an IC50 [1, 10] of 0.587 ± 0.087 µM, a Ki [9] of 4.4 µM and a Ki [4] of 1.6 µM.
`CC(C)(C)OC(=O)NCCCCCCCCC#Cc1ccc2c(c1)C=C([N+](=O)[O-])C(C(F)(F)F)O2` (centres unmarked) [Compound 33] gave an IC50 [1, 10] of 45.4 ± 17.7 µM.
